Columns and labels:
[1] = system: GFP-labeled cholinergic neurons; experiment: outgrowth of GFP-labeled cholinergic neurons in vivo in C. elegans; details: for outgrowth activity of GFP-labeled cholinergic neurons: control 0.2% DMSO in M9 buffer, compared with dibutyryl cAMP
Method: (§1) Control: 0.2% DMSO in M9 buffer. […] Additionally, several analogs were prepared and their biological activity was measured.

SUCNR1 = molecular target: T1, SUCNR1 (Homo sapiens, UniProt Q9BXA5); experiment: modulation of SUCNR1 when administered with sodium succinate; assay type: cell-based; details: compared to sodium succinate alone
T1 sequence (Q9BXA5 1-334): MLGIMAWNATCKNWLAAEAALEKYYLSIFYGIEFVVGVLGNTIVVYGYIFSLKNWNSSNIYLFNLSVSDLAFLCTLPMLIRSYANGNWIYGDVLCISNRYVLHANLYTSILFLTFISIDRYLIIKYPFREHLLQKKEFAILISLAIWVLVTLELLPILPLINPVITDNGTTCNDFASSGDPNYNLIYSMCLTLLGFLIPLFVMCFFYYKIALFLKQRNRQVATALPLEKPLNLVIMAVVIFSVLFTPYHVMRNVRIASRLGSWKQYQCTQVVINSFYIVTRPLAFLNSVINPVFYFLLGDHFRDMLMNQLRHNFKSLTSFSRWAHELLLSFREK
Method: The values are compared to 100% activation by sodium succinate.
as §1

semaphorin 3A (Sema3A) = molecular target: T2, semaphorin 3A (Sema3A) (Homo sapiens, UniProt Q14563); details: read-out: Sema3A inhibitory activity IC50 (converted); cited from earlier work
T2 sequence (Q14563 21-771): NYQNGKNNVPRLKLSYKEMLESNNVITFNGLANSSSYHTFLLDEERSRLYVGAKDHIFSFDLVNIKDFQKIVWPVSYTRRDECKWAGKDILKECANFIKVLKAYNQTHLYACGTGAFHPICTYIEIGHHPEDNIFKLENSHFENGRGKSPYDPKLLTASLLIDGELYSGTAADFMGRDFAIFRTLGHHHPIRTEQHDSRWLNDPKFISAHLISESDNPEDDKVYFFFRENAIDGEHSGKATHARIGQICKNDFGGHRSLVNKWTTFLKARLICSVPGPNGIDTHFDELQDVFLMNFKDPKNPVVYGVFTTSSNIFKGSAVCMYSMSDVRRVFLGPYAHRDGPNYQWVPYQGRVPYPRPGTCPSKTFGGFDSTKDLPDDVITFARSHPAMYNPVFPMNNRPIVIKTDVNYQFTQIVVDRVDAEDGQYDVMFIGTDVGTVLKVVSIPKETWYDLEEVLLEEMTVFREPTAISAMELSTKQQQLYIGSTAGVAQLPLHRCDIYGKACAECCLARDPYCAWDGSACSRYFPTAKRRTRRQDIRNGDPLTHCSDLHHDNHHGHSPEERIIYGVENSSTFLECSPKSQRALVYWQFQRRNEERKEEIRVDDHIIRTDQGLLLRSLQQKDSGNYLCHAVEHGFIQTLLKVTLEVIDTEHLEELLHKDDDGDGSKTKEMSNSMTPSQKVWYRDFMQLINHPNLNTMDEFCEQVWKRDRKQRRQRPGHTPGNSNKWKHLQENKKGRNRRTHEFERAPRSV

[2] = at concentrations >1000 times the effective dose; cited from earlier work

Row | SMILES | outgrowth activity of GFP-labeled cholinergic neurons [1] | Dose ratio (SUCNR1) | efficacy value (SUCNR1) [%] | IC50 (semaphorin 3A (Sema3A)) [nM] | cytotoxicity effects [2] | promotes branching in % of animals ([1]; at 2 mM) [%]
1 | CC(=O)c1c(C)c(/C(O)=C2\COc3cc(O)c(O)c(C(=O)O)c3C2=O)cc2c(=O)c3c(C(=O)O)c(O)c(O)cc3oc12 [xanthofulvin] | comparable to dibutyryl cAMP | 0.32 | 222 | – | – | –
2 | CC(=O)c1cc2c(=O)c3c(C(=O)O)c(O)c(O)cc3oc2c(C(C)=O)c1-c1coc2cc(O)c(O)c(C(=O)O)c2c1=O [vinaxanthone, 5,7-diacetyl-6-(5-carboxy-6,7-dihydroxy-4-oxo-4H-chromen-3-yl)-2,3-dihydroxy-9-oxo-9H-xanthene-1-carboxylic acid] | comparable to dibutyryl cAMP | 0.33 | 230 | 173 | no observable cytotoxicity effects | –
3 | CCCC(=O)Nc1ncnc2c1ncn2[C@@H]1O[C@@H]2COP(=O)(O)O[C@H]2[C@H]1OC(=O)CCC [dibutyryl cAMP, reference compound] | – | – | – | – | – | 36

From patent publication US20160185745A1, “ANALOGS OF VINAXANTHONE AND XANTHOFULVIN, METHODS OF SYNTHESIS, AND METHODS OF TREATMENTS THEREOF” (BOARD OF REGENTS, THE UNIVERSITY OF TEXAS SYSTEM, priority 2013, published 2016)
